The subject of data set [1] is Na+/K+ ATPase. The data set is described as follows: liver slice GABA release with Na+/K+ ATPase inhibitor. It is filed as cell-based, mouse. Conditions: 1 mM, bath application. An excerpt:
Two liver slices were taken from each mouse.

The subject of data set [2] is PSEM89S ligand-gated depolarizing channel. Nature of the data set: PSEM89S ligand IP in mice with cre-dependent hepatic depolarizing channel: serum insulin, glucose. It is filed as in vivo, mouse. As to conditions: 30 mg/kg IP. An excerpt: (§1) The depolarizing channel (PSAM^L141F,Y115F-5 HT3HC), originally engineered by Dr. Scott Sternsons group, was made by mutating the acetylcholine binding domain of a chimeric channel that included the binding domain of the α7 nicotinic acetylcholine receptor and the ion pore domain of the serotonin receptor 3a. The ligand binding domain mutations (Leu^141→Phe and Tyr^115→Phe) limited the agonist action of acetylcholine and allowed for stimulation by a pharmacologically selective effector molecule PSEM89S. The exogenous ligand PSEM89S opens the serotonin receptor 3a channel allowing Na^+, K^+, and Ca^++ passage into the cell and membrane depolarization. AAV8 viral vectors were used for plasmid delivery in all the reported studies and were synthesized by the Penn Vector Core. Hepatic specific expression of the depolarizing channel was achieved through two different methods. First, expression of a cre-recombinase dependent depolarizing channel was driven by a globally expressed CAG promoter. LoxP sites limited expression to cre-recombinase expressing tissue, and tail vein injection of 1×10^10 viral genome copies established hepatocyte expression in albumin-cre but not wildtype mice. Second, a separate AAV8 viral vector, induced hepatic specific expression of the same depolarizing channel by driving expression using the thyroxine binding globulin (TBG) promoter. Tail vein injection of 1×10^11 viral genome copies established hepatocyte expression (FIG. 18C). The thyroxine binding globulin promoter also drove hepatic expression of the hyperpolarizing, inward-rectifier K^+ channel, Kir2.1. Tail vein injection of 1×10^11 viral genome copies established hepatocyte specific expression (FIG. 19A). To confirm channel expression and tissue specificity, all viral vector plasmids encoded for enhanced green fluorescent protein (eGFP).
All studies in virus injected mice were conducted at least 5 days post virus injection to allow for maximal channel expression. Individually housed mice were intraperitoneally injected with the ligand for the depolarizing channel (PSEM89S; 30 mg/kg; 0.1 mL/10 g body weight) or PBS (0.1 mL/10 g body weight).
Studies conducted in mice injected with the cre-dependent depolarizing channel virus took place at 8 am. […]
(§2) Within 2 hours of collection, blood was left to clot at room temperature for 20 minutes. […] Serum glucose was analyzed by colorimetric assay (Cat. #G7519, Pointe Scientific Inc., Canton Mich.). Serum insulin was analyzed by enzyme-linked immunosorbent assay (ELISA; Cat. #80-INSMSU-E01,E10, Alpco, Salem, N.H.). Serum glucagon was analyzed by enzyme-linked immunosorbent assay (ELISA; Cat. #10-1281-01, Mercodia, Uppsala, Sweden) from tail vein blood collected at 9 am from fed mice (Vagotomy study) or after a 4 hour fast at 1 PM (Kir2.1 study).

Data set [3] has the same test system. Nature of the data set: PSEM89S ligand IP before oral glucose in mice with TBG promoter driven depolarizing channel. It is filed as in vivo, mouse. Conditions: TBG channel expressing mice.
From the text: as §1, with “The thyroxine binding globulin promoter also drove hepatic expression of the hyperpolarizing, inward-rectifier K^+ channel, Kir2.1. Tail vein injection of 1×10^11 viral genome copies established hepatocyte specific expression (FIG. 19A). To confirm channel expression and tissue specificity, all viral vector plasmids encoded for enhanced green fluorescent protein (eGFP).” left out
as §2

For data set [4] the test system is unchanged. It is filed as in vivo, mouse.
From the text: as §1, with “Tail vein injection of 1×10^11 viral genome copies established hepatocyte specific expression (FIG. 19A). To confirm channel expression and tissue specificity, all viral vector plasmids encoded for enhanced green fluorescent protein (eGFP).” left out
Simultaneous in vivo recordings were performed of hepatocyte membrane potential and hepatic afferent vagal nerve firing activity in anesthetized (isoflurane) mice to directly assess the effect of hepatocyte depolarization on hepatic afferent vagal nerve activity. […] After placement and sealing of the hook electrode, 45-60 minutes of basal nerve activity was monitored/recorded with pClamp software (version 10.2; Molecular Devices) until nerve activity stabilized, after which, treatments began. […]

For data set [5], the system named is lean mice and obese control or GABA-T ASO treated mice. Nature of the data set: leptin sensitivity (single 6 am leptin injection): food intake, body weight. It is filed as in vivo, mouse. The method, then:
Lean mice or diet-induced obese control or GABA-T targeted ASO treated mice received an intraperitoneal injection of phosphate buffered saline (PBS; 0.1 mL/10 g body weight) on day 1 and leptin (2 mg/kg; 0.1 mL/10 g body weight; CAT#498-OB, R&D Systems, Minneapolis, Minn.) on day 2 at 6 am. Mice were not fasted before injections. Food and body weight were measured every day at 6 am and 6 pm.

The target of data set [6] is T1, Kir2.1 (Homo sapiens, UniProt P63252).
T1 construct: host or cells: hepatocytes of wildtype mice in vivo, AAV8 with TBG promoter
T1 sequence (P63252 1-427): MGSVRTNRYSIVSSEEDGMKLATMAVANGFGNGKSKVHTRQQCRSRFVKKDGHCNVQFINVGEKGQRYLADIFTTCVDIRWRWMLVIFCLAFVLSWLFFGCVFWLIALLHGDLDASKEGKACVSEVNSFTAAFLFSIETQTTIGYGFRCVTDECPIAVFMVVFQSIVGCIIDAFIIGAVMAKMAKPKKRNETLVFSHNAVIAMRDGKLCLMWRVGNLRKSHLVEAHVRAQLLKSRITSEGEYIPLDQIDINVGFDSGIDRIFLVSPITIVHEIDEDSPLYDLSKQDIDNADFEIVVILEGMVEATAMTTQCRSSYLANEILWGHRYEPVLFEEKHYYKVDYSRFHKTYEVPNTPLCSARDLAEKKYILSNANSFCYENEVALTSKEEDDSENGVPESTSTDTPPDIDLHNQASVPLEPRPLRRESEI
The data set is described as follows: Barium induced change in hepatocyte membrane potential in Kir2.1 and eGFP expressing mice. It is filed as in vivo, mouse. As to conditions: 50 μM bath application.

Data set [7] has as its system high fat diet-induced obese mice. Nature of the data set: GABA-T inhibitors (8 mg/day IP) in HFD-induced obese mice: body weight, serum insulin/glucose/glucagon, OGTT, ITT. It is filed as in vivo, mouse. The method, then:
(§3) All animal studies were conducted using male wildtype C57BL/6J mice purchased from Jackson Laboratories or bred in-house (Bar Harbor, Me.). Mice were kept on a 14-hour light/10-hour dark schedule and housed 3-5 mice per cage until 1 week prior to study initiation, at which point animals were individually housed. Studies were conducted in lean chow fed mice (7013 NIH-31, Teklad WI, 3.1 kcal/g, 18% kcal from fat, 59% kcal from carbohydrate, 23% kcal from protein) at 12-16 weeks of age. Studies in diet-induced obese mice dosed intraperitoneally with GABA transaminase inhibitors, mice treated with ethanolamine-O-sulfate in their drinking water, and mice treated with GABA-T targeted or scramble control antisense oligonucleotides (ASO) were performed after 8-10 weeks on a high fat diet (TD 06414, Teklad WI, 5.1 kcal/g, 60.3% kcal from fat, 21.3% kcal from carbohydrate, 18.4% kcal from protein; 20-26 weeks of age). For ASO studies, mice were stratified by body weight and assigned to an injection treatment (control or GABA-T). Studies in obese vagotomy and sham mice were performed after 9 weeks of high fat diet feeding. Unless fasted, mice had ad libitum access to food and water. All studies were approved by The University of Arizona Institutional Animal Care and Use Committee.
(§4) Wildtype lean and obese mice were randomly divided into treatment groups and dosed daily with 8 mg of ethanolamine-O-sulfate (EOS; Sigma-Aldrich, St. Louis, Mo.), vigabatrin (United States Pharmacopeia, Rockville, Md.) or PBS. Obese sham and vagotomy mice were dosed daily with 8 mg of EOS. In all cases, basal bleeds were taken prior to initiation of an ITT. Lean mice received treatment by oral gavage (0.3 mL/mouse) while obese mice were treated by intraperitoneal injection (0.3 mL/mouse). Pre-treatment studies were conducted in the week immediately prior to beginning drug administration. Daily doses took place at 9 am each day and oral glucose tolerance tests (OGTT) and insulin tolerance tests (ITT) were performed on the third and fourth days of treatment in lean mice, respectively. In wildtype obese mice, OGTT and ITT were performed on the fourth day of treatment in separate cohorts. On the fifth day of treatment, 2DG clearance studies were performed. In sham/vagotomy mice, OGTT and ITT were performed on the fourth and fifth day of treatment, respectively. After a 2-week washout period without treatment injection, a basal bleed and bleed 15 minutes after an oral glucose gavage ([…]) to determine oral glucose stimulated insulin secretion were performed.
(§5) Oral glucose (2.5 g/kg; 0.1 mL/10 g body weight; Chem-Impex Int'l Inc., Wood Dale, Ill.) was given to 4 hour fasted individually housed mice. All glucose tolerance tests began at […] and glucose was measured in whole blood, collected from the tail vein, by glucometer (Manufacture #D2ASCCONKIT, Bayer, Leverkusen, Germany) at 0, 15, 30, 60, 90, and 120 minutes after glucose gavage. Blood for serum insulin (oral glucose stimulated insulin secretion; OGSIS) and glucose determination was collected from the tail vein 15 minutes following glucose administration.
(§6) Intraperitoneal insulin (0.5 U/kg; 0.1 mL/10 g body weight; Sigma Aldrich, St. Louis, Mo.) was given to 4 hour fasted individually housed mice. All insulin tolerance tests began at […] and glucose was measured in whole blood, collected from the tail vein, by glucometer (Manufacture #D2ASCCONKIT, Bayer, Leverkusen, Germany) at 0, 30, 60, 90, and 120 minutes after insulin injection.
(§7) Within 2 hours of collection, blood was left to clot at room temperature for 20 minutes. Thereafter, the blood was centrifuged at 3,000×g for 30 minutes at 4° C. and serum was collected. Serum was stored at −80° C. until metabolite and hormone analyses. A colorimetric assay was used to analyze serum glucose (Cat. #G7519, Pointe Scientific Inc., Canton Mich.). Serum insulin was analyzed by enzyme-linked immunosorbent assay (ELISA; Cat. #80-INSMSU-E01,E10, Alpco, Salem, N.H.). […]

For data set [8], the system named is lean mice. Nature of the data set: GABA-T inhibitors (8 mg/day oral gavage) in lean mice: glucose homeostasis. It is filed as in vivo, mouse. As to conditions: 8 mg/day. The method, then: as §3, §4, §5, §6, §7
The mark [9] stands for this setting: albumin-cre channel expressing mice.
Where [10] appears, read: 30 mg/kg IP 10 minutes before oral glucose 2.5 g/kg.
The mark [11] stands for this setting: chow fed mice, single 6AM injection.
[12] abbreviates: 8 mg/day IP, four days, relative to pre-treatment.

Turning to `C[C@@H]1O[C@@H](O[C@H]2C[C@@H](O)[C@]3(CO)[C@H]4[C@H](O)C[C@]5(C)[C@@H](C6=CC(=O)OC6)CC[C@]5(O)[C@@H]4CC[C@]3(O)C2)[C@H](O)[C@H](O)[C@H]1O` [Ouabain], the “increase of liver slice GABA release (μmol/mg DNA)” value in data set [1] is listed as “more than 40%”.
`COc1ccc(OC)c(C(=O)N[C@@H]2CN3CCC2CC3)c1.O=C(O)C(F)(F)F` [PSEM89S ligand]: in data set [2] (setting [9]), the serum glucose result is “decreased” and the serum insulin result is recorded as “more than doubled”. For the same compound, the “glucose:insulin ratio” value in data set [2] (albumin-cre mice) is given as “decreased”. Also, in data set [2] (wildtype mice), the “serum insulin, glucose, or glucose:insulin ratio” value is “did not alter”. Further, in data set [3] (setting [10]), the “glucose:insulin ratio” value is on record as “lowered” and the serum insulin entry is reported as “elevated”. Besides, the “rise in serum glucose following oral glucose gavage” value in data set [3] (30 mg/kg IP) was “did not affect”. Moreover, the HVAN firing activity result in data set [4] (30 μM bath application, albumin-cre channel expressing mice) was “decreased”. Further, in data set [4] (mouse, in vivo), the “hepatocyte depolarization at 10 minutes” value came to 17.0±5.4 mV and the maximal hepatocyte depolarization came to 28±5.4 mV.
“leptin: anorexigenic hormone leptin (R&D Systems)”: in data set [5] (setting [11]), the body weight entry is “without affecting”; the “light cycle and 24-hour food intake” value is listed as “decreased”. The relative weight change result in data set [5] (control or GABA-T ASO obese mice, 2 mg/kg) was “not affected”. The food intake entry in data set [5] (obese mice on either ASO treatment, 2 mg/kg single 6AM injection, any timepoint) is “did not affect”.
In data set [6] (Kir2.1 expressing mice), `[Ba+2]` [Ba2+, Barium] returned a depolarization of hepatocytes of 6.86±1.54 mV. Further, in data set [6] (control eGFP expressing mice), the “change in hepatocyte membrane potential” value is −0.62±1.86 mV.
With `C=CC(N)CCC(=O)O` (stereo not shown) [vigabatrin], in data set [7] (setting [12]), the “glucose:insulin ratio” value was “increased”, the serum glucose entry is reported as “decreased” and the serum insulin result is reported as “decreased”. In addition, in data set [7] (8 mg/day IP, through 5 days, vs saline injected mice), the body weight result is “remained similar”. For the same compound, in data set [7] (treatment day 4, relative to pre-treatment), the “glucose stimulated serum insulin” value is recorded as “decreased”. In addition, in data set [7] (two-weeks washout), the “glucose stimulated serum insulin after washout” value is reported as “markedly increased”; the “serum insulin and glucose:insulin ratio after washout” value is “return of serum insulin and the glucose:insulin ratio to pre-treatment levels”. The “insulin sensitivity assessed by insulin tolerance test (ITT)” value in data set [7] (within 4 days of initiating treatment) is recorded as “improved”. For the same compound, in data set [8], the glucose tolerance entry is recorded as “no effect”, the insulin sensitivity entry was “no effect” and the serum insulin concentrations result is “no effect”.

The values are drawn from patent publication US20230128194A1, “METHODS AND COMPOSITIONS TO ALTER HEPATIC GABA RELEASE TO TREAT OBESITY-RELATED CONDITIONS” (ARIZONA BOARD OF REGENTS ON BEHALF OF THE UNIVERSITY OF …, priority 2017, published 2023).
